Values quoted from earlier work as cited in patent publication US12611407B2, “Gastro-resistant high-strength formulation containing posaconazole” (Alfred E. Tiefenbacher (GmbH & Co. KG), priority 2020, dated 2026).

Columns and labels:
[1] = not given; remark: listed apart in the source

Row | Compound | aqueous solubility | stability in an aqueous suspension compared with form I ([1]; aqueous suspension) | water solubility compared with form I | stability of the crystalline form ([1]; normal storage conditions or specific stress conditions)
1 | CC[C@@H]([C@H](C)O)n1ncn(-c2ccc(N3CCN(c4ccc(OC[C@@H]5CO[C@@](Cn6cncn6)(c6ccc(F)cc6F)C5)cc4)CC3)cc2)c1=O [Posaconazole] | low aqueous solubility | – | – | –
2 | CC[C@@H]([C@H](C)O)n1ncn(-c2ccc(N3CCN(c4ccc(OC[C@@H]5CO[C@@](Cn6cncn6)(c6ccc(F)cc6F)C5)cc4)CC3)cc2)c1=O [form IV, posaconazole] | – | better stability in an aqueous suspension | better water solubility | –
3 | CC[C@@H]([C@H](C)O)n1ncn(-c2ccc(N3CCN(c4ccc(OC[C@@H]5CO[C@@](Cn6cncn6)(c6ccc(F)cc6F)C5)cc4)CC3)cc2)c1=O [form Y, posaconazole] | – | – | better water solubility | as stable as form I
